In brackets after ≈: the same amount, converted by molar mass.
Columns and labels:
[1] = target: T1, P. aeruginosa DNA gyrase (Pseudomonas aeruginosa, UniProt P48372+Q9I7C2); assay: Cell-free gyrase supercoiling inhibition assay; assay type: biochemical; details: purified enzyme, cell-free supercoiling kit
T1 construct: purchased Inspiralis (Norwich, UK) PAS001

[2] = tested on: panel of Gram-negative pathogens; assay: MIC panel, statements across strains; assay type: cell-based, K. pneumoniae, A. baumannii, P. aeruginosa, E. coli; details: versus ciprofloxacin
Procedure: (§1) The antibacterial activities of the synthesized fluoroquinolones were evaluated against a panel of Gram-negative pathogens including K. pneumoniae (NCTC 13368, M6), Acinetobacter baumannii (AYE, ATCC 17978), Pseudomonas aeruginosa (PAO1, NCTC 13437), and Escherichia coli (NCTC 12923, LEC001). The ability of molecules to permeate the Gram-negative outer membrane was investigated by adding membrane permeabilizer polymyxin B nonapeptide (PMBN) at sub-inhibitory concentrations (Table 2). Phenylalanine–arginine β-naphthylamide (PAβN) was used to investigate efflux of compounds by resistance–nodulation–division (RND)-family efflux pumps (Table 3).
(§2) Minimal inhibitory concentrations (MICs) were determined using the microdilution broth method. Briefly, compounds were added to the first two columns of a 96-well plate and diluted two-fold down the plate in tryptic soy broth. Overnight cultures of bacteria were then adjusted to a concentration of 1 × 10^6 CFU/mL and added to each well for a final concentration of 5 × 10^5 CFU/mL.

[3] = tested on: P. aeruginosa NCTC 13437; assay: MIC, microdilution broth method; assay type: cell-based, Pseudomonas aeruginosa; details: Pseudomonas aeruginosa
Procedure: as §1, §2

[4] = Solubility as observed in the MIC and enzyme experiments; assay type: physicochemical; details: S. aureus DNA gyrase / topoisomerase IV assay media, at the high concentrations required
Procedure: In vitro activity assays using purified S. aureus, E. coli and P. aeruginosa DNA gyrase, and S. aureus topoisomerase IV enzymes were performed in order to evaluate whether the gains in inhibitory activity predicted for the benzofused compounds were accurate. The benzothiophene-containing 6e was selected as a representative compound for the purposes of this experiment. […].
A general correlation between N1 substituent hydrophobicity and activity is observed; […].

[5] = tested on: K. pneumoniae NCTC 13368; assay: MIC, microdilution broth method; assay type: cell-based, Klebsiella pneumoniae; details: for MIC: Klebsiella pneumoniae; for potentiation of MIC by PMBN: MIC –PMBN vs +PMBN
Procedure: as §1, §2

[6] = tested on: E. coli NCTC 12923; assay: MIC, microdilution broth method; assay type: cell-based, Escherichia coli; details: for MIC: Escherichia coli
[7] = tested on: A. baumannii ATCC 17978; assay: MIC, microdilution broth method; assay type: cell-based, Acinetobacter baumannii; details: for MIC: Acinetobacter baumannii; for potentiation of MIC by PMBN: MIC –PMBN vs +PMBN
[8] = target: T2, E. coli DNA gyrase (Escherichia coli, UniProt P0AES4+P0AES6); assay: Cell-free gyrase supercoiling inhibition assay; assay type: biochemical; details: purified enzyme, cell-free supercoiling kit
T2 construct: purchased Inspiralis (Norwich, UK) K0001

[9] = tested on: K. pneumoniae M6; assay: MIC, microdilution broth method; assay type: cell-based, Klebsiella pneumoniae; details: for MIC: Klebsiella pneumoniae; for potentiation of MIC by PMBN: MIC –PMBN vs +PMBN
[10] = tested on: A. baumannii AYE; assay: MIC, microdilution broth method; assay type: cell-based, Acinetobacter baumannii; details: for MIC: Acinetobacter baumannii
Procedure: as §1, §2

[11] = tested on: P. aeruginosa PAO1; assay: MIC, microdilution broth method; assay type: cell-based, Pseudomonas aeruginosa; details: for MIC: Pseudomonas aeruginosa
[12] = tested on: E. coli LEC001; assay: MIC, microdilution broth method; assay type: cell-based, Escherichia coli; details: for MIC: Escherichia coli
Procedure: as §1, §2

[13] = NCTC13437, +PMBN (30 μg/mL), ciprofloxacin-resistant strain (R)
[14] = NCTC13437, –PMBN, ciprofloxacin-resistant strain (R)
[15] = NCTC13368, +PMBN (30 μg/mL), ciprofloxacin-resistant strain (R)
[16] = NCTC13368, –PMBN, ciprofloxacin-resistant strain (R)
[17] = RND-family efflux inhibitor PAβN
[18] = NCTC12923, +PMBN (30 μg/mL), ciprofloxacin-sensitive strain (S)
[19] = NCTC12923, –PMBN, ciprofloxacin-sensitive strain (S)
[20] = ATCC17978, +PMBN (30 μg/mL), ciprofloxacin-sensitive strain (S)
[21] = ATCC17978, –PMBN, ciprofloxacin-sensitive strain (S)
[22] = PAβN, text names A. baumannii only
[23] = M6, +PMBN (30 μg/mL), ciprofloxacin-sensitive strain (S)
[24] = M6, –PMBN, ciprofloxacin-sensitive strain (S)
[25] = +PMBN (30 μg/mL), ciprofloxacin-resistant strain (R)
[26] = –PMBN, ciprofloxacin-resistant strain (R)
[27] = PAO1, +PMBN (30 μg/mL), ciprofloxacin-sensitive strain (S)
[28] = PAO1, –PMBN, ciprofloxacin-sensitive strain (S)
[29] = LEC001, +PMBN (30 μg/mL), ciprofloxacin-resistant strain (R)
[30] = LEC001, –PMBN, ciprofloxacin-resistant strain (R)

T1 sequence (Q9I7C2 whole entry): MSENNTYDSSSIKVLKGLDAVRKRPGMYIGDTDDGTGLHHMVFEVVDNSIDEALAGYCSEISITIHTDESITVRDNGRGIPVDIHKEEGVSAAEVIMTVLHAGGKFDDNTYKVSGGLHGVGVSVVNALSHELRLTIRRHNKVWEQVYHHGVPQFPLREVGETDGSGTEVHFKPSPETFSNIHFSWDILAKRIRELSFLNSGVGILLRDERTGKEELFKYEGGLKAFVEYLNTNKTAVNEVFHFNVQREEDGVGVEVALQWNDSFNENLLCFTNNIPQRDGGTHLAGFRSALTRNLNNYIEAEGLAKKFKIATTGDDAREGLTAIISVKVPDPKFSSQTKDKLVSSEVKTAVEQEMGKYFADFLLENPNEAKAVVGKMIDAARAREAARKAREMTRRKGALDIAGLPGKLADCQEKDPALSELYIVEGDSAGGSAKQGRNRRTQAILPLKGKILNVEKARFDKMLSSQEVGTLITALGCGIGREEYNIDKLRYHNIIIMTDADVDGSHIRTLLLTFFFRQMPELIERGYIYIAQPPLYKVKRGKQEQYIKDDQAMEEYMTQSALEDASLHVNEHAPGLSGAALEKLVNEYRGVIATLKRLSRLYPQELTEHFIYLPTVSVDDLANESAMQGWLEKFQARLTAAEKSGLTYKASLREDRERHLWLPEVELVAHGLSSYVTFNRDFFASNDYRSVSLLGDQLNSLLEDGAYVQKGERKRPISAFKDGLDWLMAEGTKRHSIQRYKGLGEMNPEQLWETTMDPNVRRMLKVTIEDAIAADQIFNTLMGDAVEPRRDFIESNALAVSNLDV
T1 sequence (P48372 whole entry): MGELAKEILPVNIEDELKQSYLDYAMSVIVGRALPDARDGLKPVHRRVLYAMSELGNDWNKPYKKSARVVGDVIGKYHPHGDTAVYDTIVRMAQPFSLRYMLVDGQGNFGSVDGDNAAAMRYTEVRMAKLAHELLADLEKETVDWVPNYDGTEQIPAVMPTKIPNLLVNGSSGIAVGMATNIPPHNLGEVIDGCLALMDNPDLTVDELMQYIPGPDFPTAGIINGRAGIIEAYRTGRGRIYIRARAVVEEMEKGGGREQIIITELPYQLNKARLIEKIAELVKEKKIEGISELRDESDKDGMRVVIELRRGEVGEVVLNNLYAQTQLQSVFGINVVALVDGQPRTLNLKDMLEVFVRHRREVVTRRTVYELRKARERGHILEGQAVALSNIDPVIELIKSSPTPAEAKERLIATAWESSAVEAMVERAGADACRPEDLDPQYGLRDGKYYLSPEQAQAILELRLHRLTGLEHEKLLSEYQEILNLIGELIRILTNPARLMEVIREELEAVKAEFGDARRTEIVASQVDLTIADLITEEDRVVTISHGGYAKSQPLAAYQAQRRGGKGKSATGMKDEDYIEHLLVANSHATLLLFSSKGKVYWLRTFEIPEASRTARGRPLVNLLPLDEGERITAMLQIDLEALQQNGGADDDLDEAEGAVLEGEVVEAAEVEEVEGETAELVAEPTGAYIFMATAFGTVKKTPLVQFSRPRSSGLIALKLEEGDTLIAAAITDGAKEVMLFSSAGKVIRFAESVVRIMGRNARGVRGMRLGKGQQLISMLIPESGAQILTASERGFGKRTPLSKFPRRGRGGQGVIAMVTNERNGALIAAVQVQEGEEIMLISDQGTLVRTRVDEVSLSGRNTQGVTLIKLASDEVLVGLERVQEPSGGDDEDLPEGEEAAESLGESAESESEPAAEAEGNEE
T2 sequence (P0AES4 whole entry, one chain of several): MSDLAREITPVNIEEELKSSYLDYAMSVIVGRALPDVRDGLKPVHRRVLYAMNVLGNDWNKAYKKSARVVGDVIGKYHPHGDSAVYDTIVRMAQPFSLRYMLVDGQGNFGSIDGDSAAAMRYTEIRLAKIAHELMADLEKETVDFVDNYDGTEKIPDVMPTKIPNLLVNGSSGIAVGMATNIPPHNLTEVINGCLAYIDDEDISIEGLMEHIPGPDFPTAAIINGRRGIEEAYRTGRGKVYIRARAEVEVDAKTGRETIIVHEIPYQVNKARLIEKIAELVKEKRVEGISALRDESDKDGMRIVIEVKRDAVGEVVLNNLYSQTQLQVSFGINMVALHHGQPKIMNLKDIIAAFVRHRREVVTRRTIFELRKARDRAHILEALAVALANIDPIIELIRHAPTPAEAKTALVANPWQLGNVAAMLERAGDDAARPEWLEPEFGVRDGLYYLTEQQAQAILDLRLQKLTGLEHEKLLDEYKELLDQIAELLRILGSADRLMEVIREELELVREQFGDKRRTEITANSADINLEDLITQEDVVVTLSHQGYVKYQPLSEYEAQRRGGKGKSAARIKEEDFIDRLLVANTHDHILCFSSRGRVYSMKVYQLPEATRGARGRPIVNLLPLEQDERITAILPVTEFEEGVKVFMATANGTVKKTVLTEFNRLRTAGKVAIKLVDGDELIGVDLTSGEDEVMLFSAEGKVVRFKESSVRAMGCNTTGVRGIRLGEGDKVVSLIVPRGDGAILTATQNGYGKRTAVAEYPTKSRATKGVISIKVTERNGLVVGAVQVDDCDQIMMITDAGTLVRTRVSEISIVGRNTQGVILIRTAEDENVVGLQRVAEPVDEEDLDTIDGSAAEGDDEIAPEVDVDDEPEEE

O=C(O)c1cn(-c2cccc3ccsc23)c2cc(N3CCNCC3)c(F)cc2c1=O [Compound 6e]
IC50 [1]: 15.8 µM | antibacterial activity [2]: limited activity | MIC ([3]; NCTC13437, +PAβN (25 μg/mL), Table 3, strain R): > 32 µg/mL | MIC [3, 13]: 32 µg/mL (≈ 75.6 µM) | MIC ([3]; NCTC13437, –PAβN, Table 3, strain R): > 32 µg/mL | MIC [3, 14]: > 32 µg/mL | solubility in assay media [4]: poorly soluble | MIC ([5]; NCTC13368, +PAβN (25 μg/mL), Table 3, strain R): 4 µg/mL (≈ 9.45 µM) | MIC [5, 15]: 8 µg/mL (≈ 18.9 µM) | MIC ([5]; NCTC13368, –PAβN, Table 3, strain R): > 32 µg/mL | MIC [5, 16]: 32 µg/mL (≈ 75.6 µM) | potentiation of MIC by PMBN [5]: 4–8 fold | effect of PAβN on MIC [5, 17]: significant potentiation | MIC ([6]; NCTC12923, +PAβN (25 μg/mL), Table 3, strain S): 0.25 µg/mL (≈ 0.59 µM) | MIC [6, 18]: 1 µg/mL (≈ 2.36 µM) | MIC ([6]; NCTC12923, –PAβN, Table 3, strain S): 0.25 to 2 µg/mL (≈ 0.59 to 4.72 µM) | MIC [6, 19]: 4 µg/mL (≈ 9.45 µM) | effect of PAβN on MIC ([6]; PAβN, text names E. coli only): No effect | MIC ([7]; ATCC17978, +PAβN (25 μg/mL), Table 3, strain S): 4 µg/mL (≈ 9.45 µM) | MIC [7, 20]: 4 µg/mL (≈ 9.45 µM) | MIC ([7]; ATCC17978, –PAβN, Table 3, strain S): 4 µg/mL (≈ 9.45 µM) | MIC [7, 21]: 8 µg/mL (≈ 18.9 µM) | potentiation of MIC by PMBN [7]: 2 fold | effect of PAβN on MIC [7, 22]: Neither ciprofloxacin nor compound 6e showed any difference in MIC | IC50 [8]: 6.38 µM | MIC ([9]; M6, +PAβN (25 μg/mL), Table 3, strain S): 1 µg/mL (≈ 2.36 µM) | MIC [9, 23]: 2 µg/mL (≈ 4.72 µM) | MIC ([9]; M6, –PAβN, Table 3, strain S): 8 µg/mL (≈ 18.9 µM) | MIC [9, 24]: 8 µg/mL (≈ 18.9 µM) | potentiation of MIC by PMBN [9]: 2–4 fold | effect of PAβN on MIC [9, 17]: significant potentiation | MIC ([10]; +PAβN (25 μg/mL), Table 3, strain R): > 32 µg/mL | MIC [10, 25]: > 32 µg/mL | MIC ([10]; –PAβN, Table 3, strain R): > 32 µg/mL | MIC [10, 26]: > 32 µg/mL | effect of PAβN on MIC [10, 22]: Neither ciprofloxacin nor compound 6e showed any difference in MIC | MIC ([11]; PAO1, +PAβN (25 μg/mL), Table 3, strain S): 2 µg/mL (≈ 4.72 µM) | MIC [11, 27]: 2 µg/mL (≈ 4.72 µM) | MIC ([11]; PAO1, –PAβN, Table 3, strain S): 32 µg/mL (≈ 75.6 µM) | MIC [11, 28]: 32 µg/mL (≈ 75.6 µM) | MIC ([12]; LEC001, +PAβN (25 μg/mL), Table 3, strain R): > 32 µg/mL | MIC [12, 29]: > 32 µg/mL | MIC ([12]; LEC001, –PAβN, Table 3, strain R): > 32 µg/mL | MIC [12, 30]: > 32 µg/mL | effect of PAβN on MIC ([12]; PAβN, text names E. coli only): No effect

CCn1cc(C(=O)O)c(=O)c2cc(F)c(N3CCNCC3)cc21 [Compound 6b, norfloxacin, reference compound]
MIC [3, 13]: 32 µg/mL (≈ 100 µM) | MIC [3, 14]: > 32 µg/mL | MIC [5, 15]: 2 µg/mL (≈ 6.26 µM) | MIC [5, 16]: 4 µg/mL (≈ 12.5 µM) | potentiation of MIC by PMBN [5]: 2 fold | MIC [6, 18]: 0.125 µg/mL (≈ 0.391 µM) | MIC [6, 19]: 0.125 µg/mL (≈ 0.391 µM) | MIC [7, 20]: 4 µg/mL (≈ 12.5 µM) | MIC [7, 21]: 8 µg/mL (≈ 25.1 µM) | potentiation of MIC by PMBN [7]: 1–2 fold | MIC [9, 23]: 0.5 µg/mL (≈ 1.57 µM) | MIC [9, 24]: 0.25 to 0.5 µg/mL (≈ 0.783 to 1.57 µM) | potentiation of MIC by PMBN [9]: 1 fold | MIC [10, 25]: > 32 µg/mL | MIC [10, 26]: > 32 µg/mL | potentiation of MIC by PMBN ([11]; MIC –PMBN vs +PMBN): 4–16 fold | MIC [11, 27]: 0.5 µg/mL (≈ 1.57 µM) | MIC [11, 28]: 2 to 4 µg/mL (≈ 6.26 to 12.5 µM) | MIC [12, 29]: > 32 µg/mL | MIC [12, 30]: > 32 µg/mL

O=C(O)c1cn(-c2cccc3ccoc23)c2cc(N3CCNCC3)c(F)cc2c1=O [Compound 6d]
antibacterial activity [2]: limited activity | MIC [3, 13]: 32 µg/mL (≈ 78.5 µM) | MIC [3, 14]: > 32 µg/mL | MIC [5, 15]: 2 µg/mL (≈ 4.91 µM) | MIC [5, 16]: 16 µg/mL (≈ 39.3 µM) | potentiation of MIC by PMBN [5]: 4–8 fold | MIC [6, 18]: 0.25 µg/mL (≈ 0.614 µM) | MIC [6, 19]: 1 µg/mL (≈ 2.45 µM) | MIC [7, 20]: 1 µg/mL (≈ 2.45 µM) | MIC [7, 21]: 2 µg/mL (≈ 4.91 µM) | potentiation of MIC by PMBN [7]: 2 fold | MIC [9, 23]: 0.5 µg/mL (≈ 1.23 µM) | MIC [9, 24]: 1 to 2 µg/mL (≈ 2.45 to 4.91 µM) | potentiation of MIC by PMBN [9]: 2–4 fold | MIC [10, 25]: > 32 µg/mL | MIC [10, 26]: > 32 µg/mL | MIC [11, 27]: 0.5 µg/mL (≈ 1.23 µM) | MIC [11, 28]: 8 to 16 µg/mL (≈ 19.6 to 39.3 µM) | MIC [12, 29]: > 32 µg/mL | MIC [12, 30]: > 32 µg/mL
